According to patent publication EP4671246A1, “6-ALKOXYPYRAZOLOPYRIMIDINE COMPOUND AND PHARMACEUTICAL USE THEREOF” (Japan Tobacco Inc., priority 2023, dated 2024):

Each compound was assayed against T1, NLRP3 inflammasome (Homo sapiens, UniProt Q96P20) (assay: Evaluation of NLRP3 inflammasome inhibitory activity (inhibition of IL-1β production in THP1-Null cells)). Settings: 0.5 µmol/L PMA overnight, 1 µg/mL Lipopolysaccharides 3 hours, Nigericin 7.5 µmol/L 1.5 hours, AlphaLISA Human IL-1β.
T1 construct: host or cells: THP1-Null cells (PMA-differentiated, LPS-primed, nigericin-stimulated)
Type: cell-based
Protocol: The NLRP3 inflammasome inhibitory activity of test compounds were evaluated on the basis of the inhibitory activity of the IL-1β production in THP1-Null cells (Product Number: thp-null, InvivoGen). Cells were maintained for culture in RPMI-1640 media containing 10% (v/v) fetal bovine serum, 25 mmol/L HEPES, 100 U/mL penicillin, 100 µg/mL streptomycin, 100 µg/mL normocin, and 200 µg/mL hygromycin B (set at 37°C, 5% CO2/95% air) .
Cells were suspended with media for assay containing 0.5 µmol/L PMA (RPMI-1640 media containing 10% (v/v) fetal bovine serum, 100 U/mL penicillin, and 100 µg/mL streptomycin), and the suspended cells were seeded on Corning (registered trademark) 384-well Flat Clear Bottom Black Polystyrene TC-treated Microplates (25,000 cells/25 µL/well), followed by incubation (set at 37°C, 5% CO2/95% air) overnight. The supernatant of the culture was removed, and thereto was added media for assay (25 µL/well) containing 1 µg/mL Lipopolysaccharides (Product Number: L2654, Sigma-Aldrich (registered trademark)). Then, the culture was further incubated for 3 hours (set at 37°C, 5% CO2/95% air) . The supernatant of the culture was removed. Then, a vehicle solution prepared from Opti-MEM (trademark) medium (Product Number: 31985-070, Invitrogen) was added to blank-setting wells and control-setting wells (20 µL/well), followed by incubation for 15 minutes (set at 37°C, 5% CO2/95% air). A solution containing a test compound (20 µL/well) was added to test compound-setting wells. Further, Opti-MEM (trademark) medium containing Nigericin (Product Number: N7143, Sigma-Aldrich (registered trademark)) was added to the control-setting wells and test compound-setting wells (5 µL/well), followed by incubation for 1.5 hours (set at 37°C, 5% CO2/95% air). The final concentration of Nigericin was adjusted to be 7.5 µmol/L. 5 µL/well of Opti-MEM (trademark) medium was added to the blank-setting wells. The supernatant of the culture was cryonically stored (set at -20°C) until measurement of IL-1β.
The amount of IL-1β in the culture supernatant was quantitated with AlphaLISA (registered trademark) Human IL-1β Detection Kit (Product Number: AL220C, Perkin Elmer). Fluorescence intensity was measured with a microplate reader EnSpier (Model number: 2300-00J, Perkin Elmer) or EnSight (Model number: HH34000000, Perkin Elmer) according to procedure manuals attached thereto. Inhibition rates of the test compound-setting wells were calculated on the basis of 100% for the blank-setting wells and 0% for the control-setting wells. IC50 values (i.e., 50% inhibitory concentrations) of the test compounds were calculated by logistic regression analysis.

T1 sequence (Q96P20 whole entry): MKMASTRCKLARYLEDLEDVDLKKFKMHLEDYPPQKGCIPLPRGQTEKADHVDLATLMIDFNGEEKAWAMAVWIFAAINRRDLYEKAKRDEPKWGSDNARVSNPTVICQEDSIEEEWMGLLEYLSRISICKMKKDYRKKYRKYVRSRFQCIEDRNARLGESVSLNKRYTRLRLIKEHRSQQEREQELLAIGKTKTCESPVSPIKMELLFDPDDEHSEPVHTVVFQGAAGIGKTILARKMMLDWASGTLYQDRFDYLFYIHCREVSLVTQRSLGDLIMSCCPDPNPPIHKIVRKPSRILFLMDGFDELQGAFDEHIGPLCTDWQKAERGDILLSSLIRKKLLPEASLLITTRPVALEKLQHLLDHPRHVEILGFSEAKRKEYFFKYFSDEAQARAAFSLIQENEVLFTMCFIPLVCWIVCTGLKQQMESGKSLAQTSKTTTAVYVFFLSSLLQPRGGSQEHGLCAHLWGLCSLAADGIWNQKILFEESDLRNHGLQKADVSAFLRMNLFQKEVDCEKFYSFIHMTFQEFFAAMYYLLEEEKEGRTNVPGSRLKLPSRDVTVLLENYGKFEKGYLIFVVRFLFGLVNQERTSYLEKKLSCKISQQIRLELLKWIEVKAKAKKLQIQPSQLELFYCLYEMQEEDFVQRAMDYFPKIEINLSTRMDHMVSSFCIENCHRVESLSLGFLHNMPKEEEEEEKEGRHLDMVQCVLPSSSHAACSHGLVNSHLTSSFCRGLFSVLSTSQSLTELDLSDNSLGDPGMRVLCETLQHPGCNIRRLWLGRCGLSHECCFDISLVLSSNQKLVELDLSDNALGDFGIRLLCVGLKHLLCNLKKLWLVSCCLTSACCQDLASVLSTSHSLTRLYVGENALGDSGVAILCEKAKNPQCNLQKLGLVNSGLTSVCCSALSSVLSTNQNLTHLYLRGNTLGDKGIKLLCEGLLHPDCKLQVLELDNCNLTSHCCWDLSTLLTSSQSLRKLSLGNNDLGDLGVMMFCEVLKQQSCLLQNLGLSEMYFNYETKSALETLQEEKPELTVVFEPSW

SMILES | IC50
COc1nc2nn(-c3ccc(Br)cc3C)cc2c(=O)[nH]1 [Example 69] | 57 nM
CCc1cc(Br)ccc1-n1cc2c(=O)[nH]c(OC)nc2n1 [Example 70] | 25 nM
COc1nc2nn(-c3c(C)cc(C(C)(F)F)cc3C)cc2c(=O)[nH]1 [Example 71] | 42 nM
Cc1cc(Br)cc(C)c1-n1cc2c(=O)[nH]c(OCCC3CCOCC3)nc2n1 [Example 72] | 27 nM
Cc1cc(C2CC2)cc(C)c1-n1cc2c(=O)[nH]c(OCCC3CCOCC3)nc2n1 [Example 73] | 18 nM
Cc1cc(C2CC2)cc(C)c1-n1cc2c(=O)[nH]c(OCCCS(=O)(=O)C(C)(C)C)nc2n1 [Example 74] | 3 nM
COc1nc2nn(-c3c(F)cc(F)cc3Cl)cc2c(=O)[nH]1 [Example 75] | 1300 nM
COc1cc(F)c(-n2cc3c(=O)[nH]c(OC)nc3n2)c(Cl)c1 [Example 76] | 74 nM
COc1nc2nn(-c3c(Cl)cc(F)cc3OC)cc2c(=O)[nH]1 [Example 77] | 2400 nM
COc1nc2nn(-c3c(C)cc(OC(F)F)cc3Cl)cc2c(=O)[nH]1 [Example 78] | 40 nM
COc1nc2nn(-c3c(C)cc(C4CC4)cc3C)c(I)c2c(=O)[nH]1 [Example 79] | 8 nM
CCc1cc(C2CC2)ccc1-n1cc2c(=O)[nH]c(OC)nc2n1 [Example 80] | 17 nM
COc1nc2nn(-c3ccc(Br)cc3C(C)C)cc2c(=O)[nH]1 [Example 81] | 58 nM
COc1nc2nn(-c3cc4c(cc3Cl)OCC4)cc2c(=O)[nH]1 [Example 82] | 75 nM
COc1nc2nn(-c3c(C)cc(C4CC4)cc3Cl)cc2c(=O)[nH]1 [Example 83] | 8 nM
COc1nc2nn(-c3c(C)cc(C(C)(F)F)cc3Cl)cc2c(=O)[nH]1 [Example 84] | 45 nM
CCc1cc(Br)cc(C)c1-n1cc2c(=O)[nH]c(OC)nc2n1 [Example 85] | 12 nM
CCc1cc(OC)cc(C)c1-n1cc2c(=O)[nH]c(OC)nc2n1 [Example 86] | 49 nM
COCc1cc(C)c(-n2cc3c(=O)[nH]c(OC)nc3n2)c(C)c1 [Example 87] | 1200 nM
COCc1cc(Br)cc(C)c1-n1cc2c(=O)[nH]c(OC)nc2n1 [Example 88] | 44 nM
CCc1cc(C(C)(F)F)cc(C)c1-n1cc2c(=O)[nH]c(OC)nc2n1 [Example 89] | 24 nM
COc1nc2nn(-c3c(C)cc(F)cc3C)cc2c(=O)[nH]1 [Example 90] | 740 nM
CCc1c2c(=O)[nH]c(OC)nc2nn1-c1c(C)cc(OC)cc1C [Example 91] | 140 nM
COCc1cc(C2CC2)cc(C)c1-n1cc2c(=O)[nH]c(OC)nc2n1 [Example 92] | 21 nM
COCc1cc(OC)cc(C)c1-n1cc2c(=O)[nH]c(OC)nc2n1 [Example 93] | 230 nM
CCOc1cc(C)c(-n2cc3c(=O)[nH]c(OC)nc3n2)c(C)c1 [Example 94] | 200 nM

SMILES | IC50
COc1cc(C)c(-n2nc3nc(OC)[nH]c(=O)c3c2C2CC2)c(C)c1 [Example 95] | 68 nM
COc1nc2nn(-c3c(C)cc(Br)c(OC)c3C)cc2c(=O)[nH]1 [Example 96] | 430 nM
COc1nc2nn(-c3cc(C)ccc3C(F)(F)F)cc2c(=O)[nH]1 [Example 97] | 1200 nM
COc1nc2nn(-c3c(C(F)(F)F)nn(C(C)C)c3C)cc2c(=O)[nH]1 [Example 98] | 500 nM
Cc1cc(Br)cc(C)c1-n1cc2c(=O)[nH]c(OCCCO)nc2n1 [Example 99] | 12 nM
COc1nc2nn(-c3c(C)cc(OC)c(Br)c3C)cc2c(=O)[nH]1 [Example 100] | 690 nM
COc1nc2nn(-c3c(C)cc(Br)cc3C#N)cc2c(=O)[nH]1 [Example 101] | 2400 nM
Cc1c(-n2cc3c(=O)[nH]c(OCC4CC4)nc3n2)c(C(F)(F)F)nn1C(C)C [Example 102] | 670 nM
COc1nc2nn(-c3cc4c(cc3Cl)OCCC4)cc2c(=O)[nH]1 [Example 103] | 110 nM
COc1nc2nn(-c3c(C)cc(Br)cc3OC(F)F)cc2c(=O)[nH]1 [Example 104] | 13 nM
COc1nc2nn(-c3c(C)cc(C4CC4)cc3OC(F)F)cc2c(=O)[nH]1 [Example 105] | 14 nM
Cc1cc(C2CC2)cc(C)c1-n1cc2c(=O)[nH]c(OCC(F)(F)CO)nc2n1 [Example 106] | 29 nM
COCCOc1nc2nn(-c3c(C)cc(Br)cc3C)cc2c(=O)[nH]1 [Example 107] | 23 nM
Cc1cc(Br)cc(C)c1-n1cc2c(=O)[nH]c(OCCC(C)(C)C#N)nc2n1 [Example 109] | 67 nM
COCc1cc(OC(F)F)cc(C)c1-n1cc2c(=O)[nH]c(OC)nc2n1 [Example 110] | 210 nM
Cc1cc(Br)cc(C)c1-n1cc2c(=O)[nH]c(OC[C@H]3CCOC3)nc2n1 [Example 111] | 50 nM
Cc1cc(Br)cc(C)c1-n1cc2c(=O)[nH]c(OC[C@@H]3CCOC3)nc2n1 [Example 112] | 38 nM
Cc1cc(Br)cc(C)c1-n1cc2c(=O)[nH]c(OCCCCO)nc2n1 [Example 113] | 14 nM
Cc1cc(Br)cc(C)c1-n1cc2c(=O)[nH]c(OCCCC#N)nc2n1 [Example 114] | 19 nM
COc1nc2nn(-c3c(C)cc(Br)cc3CF)cc2c(=O)[nH]1 [Example 115] | 13 nM
Cc1cc(C2CC2)cc(C)c1-n1cc2c(=O)[nH]c(OCCCO)nc2n1 [Example 116] | 11 nM
Cc1cc(C2CC2)cc(C)c1-n1cc2c(=O)[nH]c(OCCC(C)(C)C#N)nc2n1 [Example 117] | 31 nM
COc1nc2nn(-c3c(C)cc(C(C)(C)F)cc3C)cc2c(=O)[nH]1 [Example 118] | 73 nM
COc1nc2nn(-c3c(C)cc(C4CC4)cc3C)c(C#N)c2c(=O)[nH]1 [Example 119] | 23 nM
Cc1cc(Br)cc(C)c1-n1cc2c(=O)[nH]c(OC3COC3)nc2n1 [Example 121] | 2400 nM
